In patent US20240293400A1, “NOVEL AZAINDOLE DERIVATIVES AS ANTIVIRAL AGENTS” (Centre National de la Recherche Scientifique, priority 2021, published 2024):

Tests used:
ABL1 = ABL1 (Homo sapiens (Human), UniProt P00519); experiment: Kinase panel Z'-LYTE/Adapta SelectScreen; assay type: biochemical; conditions: 100 nM in 1% DMSO
Protocol: (§1) The inhibitory activity of the compounds on a panel of kinases including, inter alia, AXL and FLT3 was evaluated by Thermo Fisher Scientific using Z′-LYTE® and Adapta® Select Screen technology.
(§2) The fluorescence-based biochemical test uses coupled enzymes and is based on the difference in sensitivity of the phosphorylated and non-phosphorylated peptides to proteolytic cleavage. The peptide substrate is labeled with 2 fluorophores—one at each end—allowing fluorescence transfer (FRET).
(§3) Compounds 1, 2 and 3 are tested in wells at the final concentration of 100 nM in 1% DMSO.

ALK = ALK (Homo sapiens (Human), UniProt Q9UM73); experiment: Kinase panel Z'-LYTE/Adapta SelectScreen; assay type: biochemical; conditions: 100 nM in 1% DMSO
Protocol: as §1, §2, §3

AURKA (Aurora A) = AURKA (Aurora A) (Homo sapiens (Human), UniProt O14965); experiment: Kinase panel Z'-LYTE/Adapta SelectScreen; assay type: biochemical; conditions: 100 nM in 1% DMSO
Protocol: as §1, §2, §3

AURKB (Aurora B) = AURKB (Aurora B) (Homo sapiens (Human), UniProt Q96GD4); experiment: Kinase panel Z'-LYTE/Adapta SelectScreen; assay type: biochemical; conditions: 100 nM in 1% DMSO
AURKB (Aurora B), sequence (Q96GD4 whole entry): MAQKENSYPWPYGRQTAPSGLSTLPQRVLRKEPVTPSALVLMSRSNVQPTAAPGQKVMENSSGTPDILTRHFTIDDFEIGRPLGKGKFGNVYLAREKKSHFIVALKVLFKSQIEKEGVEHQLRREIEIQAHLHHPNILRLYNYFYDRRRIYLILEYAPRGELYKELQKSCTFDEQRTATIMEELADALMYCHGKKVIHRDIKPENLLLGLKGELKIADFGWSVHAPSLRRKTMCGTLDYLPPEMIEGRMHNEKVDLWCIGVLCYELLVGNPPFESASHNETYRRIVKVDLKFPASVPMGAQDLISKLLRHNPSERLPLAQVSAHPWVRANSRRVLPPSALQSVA
Protocol: as §1, §2, §3

BTK = BTK (Homo sapiens (Human), UniProt Q06187); experiment: Kinase panel Z'-LYTE/Adapta SelectScreen; assay type: biochemical; conditions: 100 nM in 1% DMSO
Protocol: as §1, §2, §3

CHUK (IKKalpha) = CHUK (IKKalpha) (Homo sapiens (Human), UniProt O15111); experiment: Kinase panel Z'-LYTE/Adapta SelectScreen; assay type: biochemical; conditions: 100 nM in 1% DMSO
Protocol: as §1, §2, §3

CSF1R (FMS) = CSF1R (FMS) (Homo sapiens (Human), UniProt P07333); experiment: Kinase panel Z'-LYTE/Adapta SelectScreen; assay type: biochemical; conditions: 100 nM in 1% DMSO
CSF1R (FMS), sequence (P07333 20-972): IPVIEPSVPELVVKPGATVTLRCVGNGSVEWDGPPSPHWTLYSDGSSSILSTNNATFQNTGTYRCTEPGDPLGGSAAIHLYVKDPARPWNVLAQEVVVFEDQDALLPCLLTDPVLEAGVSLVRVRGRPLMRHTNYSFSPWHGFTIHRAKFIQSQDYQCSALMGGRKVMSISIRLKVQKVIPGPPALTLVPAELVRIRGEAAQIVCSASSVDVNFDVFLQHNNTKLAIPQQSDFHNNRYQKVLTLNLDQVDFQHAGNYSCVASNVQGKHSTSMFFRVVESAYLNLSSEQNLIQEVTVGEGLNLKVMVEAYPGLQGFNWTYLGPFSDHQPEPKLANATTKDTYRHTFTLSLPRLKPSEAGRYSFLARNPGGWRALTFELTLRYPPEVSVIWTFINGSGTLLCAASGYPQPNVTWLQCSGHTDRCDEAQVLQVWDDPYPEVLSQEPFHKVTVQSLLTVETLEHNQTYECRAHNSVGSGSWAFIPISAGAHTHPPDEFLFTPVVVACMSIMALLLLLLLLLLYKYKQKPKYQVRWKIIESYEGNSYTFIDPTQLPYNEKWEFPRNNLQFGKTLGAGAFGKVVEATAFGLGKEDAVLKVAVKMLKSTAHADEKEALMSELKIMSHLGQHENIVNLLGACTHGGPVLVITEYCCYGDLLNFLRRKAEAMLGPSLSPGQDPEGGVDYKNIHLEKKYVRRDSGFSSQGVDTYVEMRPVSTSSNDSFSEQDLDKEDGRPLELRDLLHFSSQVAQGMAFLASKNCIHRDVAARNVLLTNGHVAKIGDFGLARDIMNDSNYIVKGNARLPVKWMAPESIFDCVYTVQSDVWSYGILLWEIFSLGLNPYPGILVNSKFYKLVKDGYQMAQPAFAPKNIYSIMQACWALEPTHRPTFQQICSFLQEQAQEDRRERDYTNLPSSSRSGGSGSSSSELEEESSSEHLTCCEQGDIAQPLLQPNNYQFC
Protocol: as §1, §2, §3

FGFR1 = FGFR1 (Homo sapiens (Human), UniProt P11362); experiment: Kinase panel Z'-LYTE/Adapta SelectScreen; assay type: biochemical; conditions: 100 nM in 1% DMSO
FGFR1, sequence (P11362 22-822): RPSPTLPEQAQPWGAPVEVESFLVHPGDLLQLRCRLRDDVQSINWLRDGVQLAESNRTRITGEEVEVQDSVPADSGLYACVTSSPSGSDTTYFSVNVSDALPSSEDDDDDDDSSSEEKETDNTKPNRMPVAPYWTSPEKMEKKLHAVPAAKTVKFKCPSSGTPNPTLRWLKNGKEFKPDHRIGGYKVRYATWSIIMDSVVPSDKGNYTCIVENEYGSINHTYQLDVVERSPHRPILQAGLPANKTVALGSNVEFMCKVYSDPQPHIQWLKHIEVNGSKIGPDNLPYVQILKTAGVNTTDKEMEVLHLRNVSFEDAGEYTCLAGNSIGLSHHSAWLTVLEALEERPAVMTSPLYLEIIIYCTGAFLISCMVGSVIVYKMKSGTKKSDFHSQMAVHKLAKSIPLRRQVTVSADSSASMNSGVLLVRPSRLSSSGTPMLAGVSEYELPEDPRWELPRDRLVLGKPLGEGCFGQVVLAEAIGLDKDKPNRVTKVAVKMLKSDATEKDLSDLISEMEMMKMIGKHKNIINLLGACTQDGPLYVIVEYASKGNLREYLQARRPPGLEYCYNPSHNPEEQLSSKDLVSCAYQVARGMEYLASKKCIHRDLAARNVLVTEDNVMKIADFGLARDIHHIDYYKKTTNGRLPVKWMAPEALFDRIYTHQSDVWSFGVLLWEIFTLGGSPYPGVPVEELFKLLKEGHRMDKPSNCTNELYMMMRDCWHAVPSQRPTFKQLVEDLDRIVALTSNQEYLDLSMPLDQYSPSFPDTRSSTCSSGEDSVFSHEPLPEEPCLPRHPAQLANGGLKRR
Protocol: as §1, §2, §3

FGFR2 = FGFR2 (Homo sapiens (Human), UniProt P21802); experiment: Kinase panel Z'-LYTE/Adapta SelectScreen; assay type: biochemical; conditions: 100 nM in 1% DMSO
Protocol: as §1, §2, §3

FLT1 (VEGFR1) = FLT1 (VEGFR1) (Homo sapiens (Human), UniProt P17948); experiment: Kinase panel Z'-LYTE/Adapta SelectScreen; assay type: biochemical; conditions: 100 nM in 1% DMSO
Protocol: as §1, §2, §3

FLT4 (VEGFR3) = FLT4 (VEGFR3) (Homo sapiens (Human), UniProt P35916); experiment: Kinase panel Z'-LYTE/Adapta SelectScreen; assay type: biochemical; conditions: 100 nM in 1% DMSO
Protocol: as §1, §2, §3

IKBKB (IKK beta) = IKBKB (IKK beta) (Homo sapiens (Human), UniProt O14920); experiment: Kinase panel Z'-LYTE/Adapta SelectScreen; assay type: biochemical; conditions: 100 nM in 1% DMSO
Protocol: as §1, §2, §3

KIT = KIT (Homo sapiens (Human), UniProt P10721); experiment: Kinase panel Z'-LYTE/Adapta SelectScreen; assay type: biochemical; conditions: 100 nM in 1% DMSO
Protocol: as §1, §2, §3

LCK = LCK (Homo sapiens (Human), UniProt P06239); experiment: Kinase panel Z'-LYTE/Adapta SelectScreen; assay type: biochemical; conditions: 100 nM in 1% DMSO
Protocol: as §1, §2, §3

MAPK1 (ERK2) = MAPK1 (ERK2) (Homo sapiens (Human), UniProt P28482); experiment: Kinase panel Z'-LYTE/Adapta SelectScreen; assay type: biochemical; conditions: 100 nM in 1% DMSO
Protocol: as §1, §2, §3

MET (cMet) = MET (cMet) (Homo sapiens (Human), UniProt P08581); experiment: Kinase panel Z'-LYTE/Adapta SelectScreen; assay type: biochemical; conditions: 100 nM in 1% DMSO
Protocol: as §1, §2, §3

NTRK1 (TRKA) = NTRK1 (TRKA) (Homo sapiens (Human), UniProt P04629); experiment: Kinase panel Z'-LYTE/Adapta SelectScreen; assay type: biochemical; conditions: 100 nM in 1% DMSO
Protocol: as §1, §2, §3

NTRK2 (TRKB) = NTRK2 (TRKB) (Homo sapiens (Human), UniProt Q16620); experiment: Kinase panel Z'-LYTE/Adapta SelectScreen; assay type: biochemical; conditions: 100 nM in 1% DMSO
Protocol: as §1, §2, §3

NUK1 (ARK5) = NUK1 (ARK5) (Homo sapiens (Human), UniProt O60285); experiment: Kinase panel Z'-LYTE/Adapta SelectScreen; assay type: biochemical; conditions: 100 nM in 1% DMSO
Protocol: as §1, §2, §3

PDGFRA (PDGFR alpha) = PDGFRA (PDGFR alpha) (Homo sapiens (Human), UniProt P16234); experiment: Kinase panel Z'-LYTE/Adapta SelectScreen; assay type: biochemical; conditions: 100 nM in 1% DMSO
PDGFRA (PDGFR alpha), sequence (P16234 24-1089): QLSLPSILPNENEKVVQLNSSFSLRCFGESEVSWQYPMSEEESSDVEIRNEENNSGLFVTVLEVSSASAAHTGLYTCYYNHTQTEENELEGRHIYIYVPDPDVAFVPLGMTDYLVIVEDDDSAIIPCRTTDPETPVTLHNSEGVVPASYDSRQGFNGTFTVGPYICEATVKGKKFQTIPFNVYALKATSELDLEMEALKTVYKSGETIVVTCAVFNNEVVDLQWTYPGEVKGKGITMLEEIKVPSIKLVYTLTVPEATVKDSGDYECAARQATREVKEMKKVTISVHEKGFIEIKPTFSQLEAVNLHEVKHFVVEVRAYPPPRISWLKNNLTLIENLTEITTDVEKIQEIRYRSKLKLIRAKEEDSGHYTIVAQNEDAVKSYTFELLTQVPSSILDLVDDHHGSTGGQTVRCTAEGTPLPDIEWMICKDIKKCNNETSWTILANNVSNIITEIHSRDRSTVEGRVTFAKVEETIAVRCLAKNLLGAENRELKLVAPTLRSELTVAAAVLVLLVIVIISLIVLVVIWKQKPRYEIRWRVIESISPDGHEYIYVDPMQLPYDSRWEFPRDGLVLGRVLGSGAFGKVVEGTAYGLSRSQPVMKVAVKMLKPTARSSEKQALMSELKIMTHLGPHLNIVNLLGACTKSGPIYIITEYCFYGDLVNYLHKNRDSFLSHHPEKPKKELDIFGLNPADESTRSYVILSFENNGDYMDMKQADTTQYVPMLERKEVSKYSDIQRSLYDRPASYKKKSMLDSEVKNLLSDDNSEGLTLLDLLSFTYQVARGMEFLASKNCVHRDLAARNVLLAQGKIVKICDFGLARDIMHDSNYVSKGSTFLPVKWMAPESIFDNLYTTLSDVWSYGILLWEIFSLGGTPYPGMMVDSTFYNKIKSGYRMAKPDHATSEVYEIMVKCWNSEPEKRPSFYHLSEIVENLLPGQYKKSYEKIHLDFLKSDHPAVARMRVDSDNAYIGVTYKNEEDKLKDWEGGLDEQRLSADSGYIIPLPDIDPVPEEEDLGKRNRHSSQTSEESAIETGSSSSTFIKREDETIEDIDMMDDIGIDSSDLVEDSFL
Protocol: as §1, §2, §3

PDGFRB (PDGFR beta) = PDGFRB (PDGFR beta) (Homo sapiens (Human), UniProt P09619); experiment: Kinase panel Z'-LYTE/Adapta SelectScreen; assay type: biochemical; conditions: 100 nM in 1% DMSO
Protocol: as §1, §2, §3

PLK1 = PLK1 (Homo sapiens (Human), UniProt P53350); experiment: Kinase panel Z'-LYTE/Adapta SelectScreen; assay type: biochemical; conditions: 100 nM in 1% DMSO
Protocol: as §1, §2, §3

PRKAA (PKA) = PRKAA (PKA) (Homo sapiens (Human), UniProt P17612); experiment: Kinase panel Z'-LYTE/Adapta SelectScreen; assay type: biochemical; conditions: 100 nM in 1% DMSO
Protocol: as §1, §2, §3

PTK2 (FAK) = PTK2 (FAK) (Homo sapiens (Human), UniProt Q05397); experiment: Kinase panel Z'-LYTE/Adapta SelectScreen; assay type: biochemical; conditions: 100 nM in 1% DMSO
Protocol: as §1, §2, §3

RET = RET (Homo sapiens (Human), UniProt P07949); experiment: Kinase panel Z'-LYTE/Adapta SelectScreen; assay type: biochemical; conditions: 100 nM in 1% DMSO
Protocol: as §1, §2, §3

ROCK2 = ROCK2 (Homo sapiens (Human), UniProt O75116); experiment: Kinase panel Z'-LYTE/Adapta SelectScreen; assay type: biochemical; conditions: 100 nM in 1% DMSO
Protocol: as §1, §2, §3

ROS1 = ROS1 (Homo sapiens (Human), UniProt P08922); experiment: Kinase panel Z'-LYTE/Adapta SelectScreen; assay type: biochemical; conditions: 100 nM in 1% DMSO
Protocol: as §1, §2, §3

SRC = SRC (Homo sapiens (Human), UniProt P12931); experiment: Kinase panel Z'-LYTE/Adapta SelectScreen; assay type: biochemical; conditions: 100 nM in 1% DMSO
Protocol: as §1, §2, §3

TEK (Tie2) = TEK (Tie2) (Homo sapiens (Human), UniProt Q02763); experiment: Kinase panel Z'-LYTE/Adapta SelectScreen; assay type: biochemical; conditions: 100 nM in 1% DMSO
TEK (Tie2), sequence (Q02763 23-1124): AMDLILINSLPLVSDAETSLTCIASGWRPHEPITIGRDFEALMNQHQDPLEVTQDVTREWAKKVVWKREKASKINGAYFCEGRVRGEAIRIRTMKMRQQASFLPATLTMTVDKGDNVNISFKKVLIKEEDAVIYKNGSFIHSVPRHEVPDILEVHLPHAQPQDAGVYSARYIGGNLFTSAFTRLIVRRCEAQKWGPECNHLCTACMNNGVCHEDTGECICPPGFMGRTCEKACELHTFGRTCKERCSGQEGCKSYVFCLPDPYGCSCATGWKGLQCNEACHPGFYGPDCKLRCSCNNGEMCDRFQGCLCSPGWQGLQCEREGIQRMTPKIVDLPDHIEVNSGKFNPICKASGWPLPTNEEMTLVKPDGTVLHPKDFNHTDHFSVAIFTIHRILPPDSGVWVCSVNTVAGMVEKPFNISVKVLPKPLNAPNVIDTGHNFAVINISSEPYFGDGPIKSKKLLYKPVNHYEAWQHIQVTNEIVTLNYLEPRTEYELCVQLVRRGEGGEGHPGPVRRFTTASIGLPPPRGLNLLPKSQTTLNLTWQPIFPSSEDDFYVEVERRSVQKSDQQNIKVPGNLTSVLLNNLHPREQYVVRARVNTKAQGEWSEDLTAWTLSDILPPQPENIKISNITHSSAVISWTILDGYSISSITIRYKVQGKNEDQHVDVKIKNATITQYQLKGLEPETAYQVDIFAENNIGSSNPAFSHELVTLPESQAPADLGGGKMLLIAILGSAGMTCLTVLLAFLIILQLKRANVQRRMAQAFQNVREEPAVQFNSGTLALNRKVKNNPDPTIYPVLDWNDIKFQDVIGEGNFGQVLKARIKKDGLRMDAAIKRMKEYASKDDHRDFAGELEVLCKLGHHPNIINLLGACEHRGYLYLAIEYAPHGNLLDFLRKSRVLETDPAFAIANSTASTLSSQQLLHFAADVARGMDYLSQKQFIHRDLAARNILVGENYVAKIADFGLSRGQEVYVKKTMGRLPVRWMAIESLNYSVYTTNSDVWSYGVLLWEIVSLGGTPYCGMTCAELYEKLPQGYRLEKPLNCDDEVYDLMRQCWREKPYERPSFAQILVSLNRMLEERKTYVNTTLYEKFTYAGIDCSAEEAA
Protocol: as §1, §2, §3

TYK2 = TYK2 (Homo sapiens (Human), UniProt P29597); experiment: Kinase panel Z'-LYTE/Adapta SelectScreen; assay type: biochemical; conditions: 100 nM in 1% DMSO
Protocol: as §1, §2, §3

TYRO3 (RSE) = TYRO3 (RSE) (Homo sapiens (Human), UniProt Q06418); experiment: Kinase panel Z'-LYTE/Adapta SelectScreen; assay type: biochemical; conditions: 100 nM in 1% DMSO
Protocol: as §1, §2, §3

YES1 = YES1 (Homo sapiens (Human), UniProt P07947); experiment: Kinase panel Z'-LYTE/Adapta SelectScreen; assay type: biochemical; conditions: 100 nM in 1% DMSO
YES1, sequence (P07947 whole entry): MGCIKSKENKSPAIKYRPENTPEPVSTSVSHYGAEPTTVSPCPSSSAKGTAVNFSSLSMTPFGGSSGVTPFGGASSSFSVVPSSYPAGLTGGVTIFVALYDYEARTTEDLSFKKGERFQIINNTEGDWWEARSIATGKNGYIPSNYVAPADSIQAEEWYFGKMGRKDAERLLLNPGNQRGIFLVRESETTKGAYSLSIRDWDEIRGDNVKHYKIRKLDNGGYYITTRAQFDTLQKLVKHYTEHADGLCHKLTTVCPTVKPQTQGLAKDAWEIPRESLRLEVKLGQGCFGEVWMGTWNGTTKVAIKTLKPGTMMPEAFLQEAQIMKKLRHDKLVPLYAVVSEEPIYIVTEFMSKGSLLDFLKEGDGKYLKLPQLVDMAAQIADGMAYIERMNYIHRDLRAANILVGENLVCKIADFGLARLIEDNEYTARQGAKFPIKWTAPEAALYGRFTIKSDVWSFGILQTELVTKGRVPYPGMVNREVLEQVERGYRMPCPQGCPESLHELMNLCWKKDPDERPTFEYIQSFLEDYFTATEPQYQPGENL
Protocol: as §1, §2, §3

ZAP70 = ZAP70 (Homo sapiens (Human), UniProt P43403); experiment: Kinase panel Z'-LYTE/Adapta SelectScreen; assay type: biochemical; conditions: 100 nM in 1% DMSO
Protocol: as §1, §2, §3

[1] = tested on: SARS-COV-2 virus, BetaCoV/France/IDF0371/2020; experiment: Anti-SARS-COV-2 activity in A549-ACE2 cells; assay type: cell-based; conditions: MOI=0.01, 24 hours, qRT-PCR; for infection of the A549-ACE2 cells by the SARS-COV-2 virus: 1.25 μM; for IC50: A549-ACE2 cells

| Structure (SMILES) | Percentage inhibition ABL1 (ABL1) | Percentage inhibition ALK (ALK) | Percentage inhibition AURKA (Aurora A) (AURKA (Aurora A)) | Percentage inhibition AURKB (Aurora B) (AURKB (Aurora B)) | Percentage inhibition BTK (BTK) | Percentage inhibition CHUK (IKKalpha) (CHUK (IKKalpha)) | Percentage inhibition CSF1R (FMS) (CSF1R (FMS)) | Percentage inhibition FGFR1 (FGFR1) | Percentage inhibition FGFR2 (FGFR2) | Percentage inhibition FLT1 (VEGFR1) (FLT1 (VEGFR1)) | Percentage inhibition FLT4 (VEGFR3) (FLT4 (VEGFR3)) | Percentage inhibition IKBKB (IKK beta) (IKBKB (IKK beta)) | Percentage inhibition KIT (KIT) | Percentage inhibition LCK (LCK) | Percentage inhibition MAPK1 (ERK2) (MAPK1 (ERK2)) | Percentage inhibition MET (cMet) (MET (cMet)) | Percentage inhibition NTRK1 (TRKA) (NTRK1 (TRKA)) | Percentage inhibition NTRK2 (TRKB) (NTRK2 (TRKB)) | Percentage inhibition NUK1 (ARK5) (NUK1 (ARK5)) | Percentage inhibition PDGFRA (PDGFR alpha) (PDGFRA (PDGFR alpha)) | further results |
| --- | --- | --- | --- | --- | --- | --- | --- | --- | --- | --- | --- | --- | --- | --- | --- | --- | --- | --- | --- | --- | --- |
| CN1CCN(Cc2cccc(-c3cnc4[nH]cc(-c5cc(NC(=O)Nc6ccccc6)ccc5F)c4c3)c2)CC1 [Compound 3] | 22% | 17% | 14% | 38% | 10% | 4% | 26% | 27% | 37% | 19% | 37% | 13% | 15% | 42% | 6% | 16% | 69% | 94% | 14% | 21% | Percentage inhibition PDGFRB (PDGFR beta) (PDGFRB (PDGFR beta)): 19%; Percentage inhibition PLK1 (PLK1): 6%; Percentage inhibition PRKAA (PKA) (PRKAA (PKA)): 7%; Percentage inhibition PTK2 (FAK) (PTK2 (FAK)): 24%; Percentage inhibition RET (RET): 23%; Percentage inhibition ROCK2 (ROCK2): 9%; Percentage inhibition ROS1 (ROS1): 18%; Percentage inhibition SRC (SRC): 10%; Percentage inhibition TEK (Tie2) (TEK (Tie2)): 27%; Percentage inhibition TYK2 (TYK2): 7%; Percentage inhibition TYRO3 (RSE) (TYRO3 (RSE)): 19%; Percentage inhibition YES1 (YES1): 11%; Percentage inhibition ZAP70 (ZAP70): 5%; infection of the A549-ACE2 cells by the SARS-COV-2 virus [1]: prevent the infection; IC50 [1]: 38 nM |
| CN1CCN(Cc2cccc(-c3cnc4[nH]cc(-c5cc(CNCc6ccccc6)ccc5F)c4c3)c2)CC1 [Compound 2] | 16% | 12% | 11% | 20% | 10% | 14% | 41% | 20% | 25% | 19% | 33% | 28% | 49% | 63% | 6% | 92% | 96% | 103% | 16% | 31% | Percentage inhibition PDGFRB (PDGFR beta) (PDGFRB (PDGFR beta)): 30%; Percentage inhibition PLK1 (PLK1): 4%; Percentage inhibition PRKAA (PKA) (PRKAA (PKA)): 6%; Percentage inhibition PTK2 (FAK) (PTK2 (FAK)): 33%; Percentage inhibition RET (RET): 48%; Percentage inhibition ROCK2 (ROCK2): 5%; Percentage inhibition ROS1 (ROS1): 77%; Percentage inhibition SRC (SRC): 16%; Percentage inhibition TEK (Tie2) (TEK (Tie2)): 88%; Percentage inhibition TYK2 (TYK2): 5%; Percentage inhibition TYRO3 (RSE) (TYRO3 (RSE)): 67%; Percentage inhibition YES1 (YES1): 15%; Percentage inhibition ZAP70 (ZAP70): 4%; infection of the A549-ACE2 cells by the SARS-COV-2 virus [1]: prevent the infection; IC50 [1]: 57 nM |
| CN1CCN(Cc2cccc(-c3cnc4[nH]cc(-c5cc(CNCCc6ccc(O)cc6)ccc5F)c4c3)c2)CC1 [Compound 1] | 38% | 45% | 14% | 41% | 12% | 43% | 62% | 43% | 58% | 53% | 64% | 33% | 8% | 50% | 11% | 15% | 53% | 61% | 74% | 57% | Percentage inhibition PDGFRB (PDGFR beta) (PDGFRB (PDGFR beta)): 37%; Percentage inhibition PLK1 (PLK1): 4%; Percentage inhibition PRKAA (PKA) (PRKAA (PKA)): 8%; Percentage inhibition PTK2 (FAK) (PTK2 (FAK)): 22%; Percentage inhibition RET (RET): 84%; Percentage inhibition ROCK2 (ROCK2): 16%; Percentage inhibition ROS1 (ROS1): 64%; Percentage inhibition SRC (SRC): 19%; Percentage inhibition TEK (Tie2) (TEK (Tie2)): 13%; Percentage inhibition TYK2 (TYK2): 5%; Percentage inhibition TYRO3 (RSE) (TYRO3 (RSE)): 51%; Percentage inhibition YES1 (YES1): 18%; Percentage inhibition ZAP70 (ZAP70): 4%; infection of the A549-ACE2 cells by the SARS-COV-2 virus [1]: prevent the infection; IC50 [1]: 19 nM |
